Tests used:
[1] = tested on: SARS-CoV-2 NIV2020-770 (D614G variant); assay type: cell-based; conditions: read-out: IC50, antiviral effect on SARS-CoV-2 NIV2020-770 (D614G variant)
[2] = tested on: SARS-CoV-2 Delta (B.617.2 variant); test: microbe, parasite or virus in culture; assay type: cell-based; conditions: Severe acute respiratory syndrome coronavirus 2, read-out: IC50, antiviral effect on SARS-CoV-2 Delta (B.617.2 variant)

O=c1cc(OCCOc2ccnc(SCc3ccc(F)cc3)n2)c2cc(F)ccc2o1 [5c, 6-Fluoro-4-(2-((2-((4-fluorobenzyl)thio)pyrimidin-4-yl)oxy)ethoxy)-2H-chromen-2-one]
IC50 [1]: < 2.5 µM
IC50 [2]: < 10 µM

Cc1cccc(CSc2nccc(OCCCOc3cc(=O)oc4ccc(F)cc34)n2)c1 [5h, 6-Fluoro-4-(3-((2-((3-methylbenzyl)thio)pyrimidin-4-yl)oxy)propoxy)-2H-chromen-2-one]
IC50 [1]: < 2.5 µM
IC50 [2]: < 10 µM

Cc1cccc(CSc2nccc(OCCOc3cc(=O)oc4ccccc34)n2)c1 [5e, 4-(2-((2-((3-Methylbenzyl)thio)pyrimidin-4-yl)oxy)ethoxy)-2H-chromen-2-one]
IC50 [1]: < 25 µM
IC50 [2]: < 10 µM

O=c1cc(OCCOc2ccnc(SCc3ccc(Cl)cc3)n2)c2ccccc2o1 [5i, 4-(2-((2-((4-Chlorobenzyl)thio)pyrimidin-4-yl)oxy)ethoxy)-2H-chromen-2-one]
IC50 [1]: < 10 µM
IC50 [2]: < 2.5 µM

Cc1cccc(CSc2nccc(OCCCOc3cc(=O)oc4ccccc34)n2)c1 [5f, 4-(3-((2-((3-Methylbenzyl)thio)pyrimidin-4-yl)oxy)propoxy)-2H-chromen-2-one]
IC50 [1]: < 25 µM
IC50 [2]: < 2.5 µM

O=c1cc(OCCCOc2ccnc(SCc3ccc(F)cc3)n2)c2cc(F)ccc2o1 [5d, 6-Fluoro-4-(3-((2-((4-fluorobenzyl)thio)pyrimidin-4-yl)oxy)propoxy)-2H-chromen-2-one]
IC50 [1]: < 10 µM
IC50 [2]: < 10 µM

O=c1cc(OCCCOc2ccnc(SCc3ccc(F)cc3)n2)c2ccccc2o1 [5b, 4-(3-((2-((4-Fluorobenzyl)thio)pyrimidin-4-yl)oxy)propoxy)-2H-chromen-2-one]
IC50 [1]: < 10 µM
IC50 [2]: < 2.5 µM

O=c1cc(OCCOc2ccnc(SCc3ccc(F)cc3)n2)c2ccccc2o1 [5a, 4-(2-((2-((4-Fluorobenzyl)thio)pyrimidin-4-yl)oxy)ethoxy)-2H-chromen-2-one]
IC50 [1]: < 50 µM
IC50 [2]: < 25 µM

Cc1cccc(CSc2nccc(OCCOc3cc(=O)oc4ccc(F)cc34)n2)c1 [5g, 6-Fluoro-4-(2-((2-((3-methylbenzyl)thio)pyrimidin-4-yl)oxy)ethoxy)-2H-chromen-2-one]
IC50 [1]: < 25 µM
IC50 [2]: < 10 µM
